Measurements taken from US20260042764A1, “COMPOSITIONS AND METHODS FOR INHIBITION OF KRAS” (TheRas, Inc., priority 2022, published 2026).
pIC50: −log10 of the molar value.

Experiments:
GP2d cells (KRAS G12D) = test: Cell-based pERK HTRF assay in GP2d cell (Biological Example 2); conditions: GP2d (KRAS G12D) cells
Method in brief: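 HTRF read-out of pERK (excitation 320 nm, emission 615 nm) after lysates sat 4–24 h at room temperature with Eu cryptate and d2 antibodies.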

[1] = target: T1, Avi-KRAS G12D (1-169) GppNHp/RAF1 RBD-3xFLAG (52-151) (Homo sapiens, UniProt P01116, G12D); test: Raf1-KRAS G12D-GppNHP disruption HTRF assay (Biological Example 1); format: binding
T1 construct: Avi-KRAS G12D (1-169)
T1 sequence (P01116 1-169 isoform P01116-2 G12D): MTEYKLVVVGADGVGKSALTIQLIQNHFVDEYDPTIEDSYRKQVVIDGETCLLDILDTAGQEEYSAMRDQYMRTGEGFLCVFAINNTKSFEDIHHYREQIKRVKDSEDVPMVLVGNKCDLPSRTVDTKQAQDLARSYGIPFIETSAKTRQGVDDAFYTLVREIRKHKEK
Method in brief: (§1)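 Percent activity versus DMSO (100%) was derived from HTRF signal after KRAS–RAF1 RBD protein mix was incubated 1 h at room temperature with shaking and detection reagents were added for a further 1 h.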

[2] = target: T2, Avi-KRAS G12R (1-169) GppNHp/RAF1 RBD-3xFLAG (52-151) (Homo sapiens, UniProt P01116, G12R); test: Raf1-KRAS G12R-GppNHP disruption HTRF assay (Biological Example 1); format: binding
T2 construct: Avi-KRAS G12R (1-169)
T2 sequence (P01116 1-169 isoform P01116-2 G12R): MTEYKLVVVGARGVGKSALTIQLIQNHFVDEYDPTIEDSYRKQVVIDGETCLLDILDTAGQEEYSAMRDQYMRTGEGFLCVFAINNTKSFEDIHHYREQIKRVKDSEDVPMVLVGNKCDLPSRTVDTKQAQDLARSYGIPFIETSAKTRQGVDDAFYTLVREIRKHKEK
Method in brief: as §1

[3] = target: T3, Avi-KRAS WT (2-169) GTP/RAF1 RBD-3xFLAG (51-131) (Homo sapiens, UniProt P01116); test: Raf1-KRAS WT-GTP disruption HTRF assay (Biological Example 3); format: binding; conditions: KRAS WT, GTP-loaded
T3 construct: Avi-KRAS WT (2-169)
T3 sequence (P01116 2-169 isoform P01116-2): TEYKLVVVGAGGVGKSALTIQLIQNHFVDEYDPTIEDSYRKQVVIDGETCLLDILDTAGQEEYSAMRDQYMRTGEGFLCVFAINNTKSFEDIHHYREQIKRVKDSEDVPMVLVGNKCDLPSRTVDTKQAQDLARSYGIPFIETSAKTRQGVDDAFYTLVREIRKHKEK
Method in brief: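 Compounds were titrated 10-point, 3-fold from 30 μM against preformed KRAS-GTP:RAF1 RBD (51-131) complexes at 50 nM, using KRAS 2-169 as WT, G12C, G12D or G12V. After 1 h at room temperature in Tris pH 7.5 buffer with MgCl2 and 10% DMSO, time-resolved fluorescence was read. Results are percent activity versus DMSO.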

[4] = KRAS G12D, GppNHp-loaded, class symbols
[5] = KRAS G12R, GppNHp-loaded, class symbols
[6] = KRAS G12D, GppNHp-loaded, Table 11
[7] = KRAS G12R, GppNHp-loaded, Table 11

| pIC50 (GP2d cells (KRAS G12D); GP2d) | pIC50 (GP2d cells (KRAS G12D); GP2d, pERK HTRF, class symbols) | pIC50 [1, 4] | pIC50 [2, 5] | pIC50 [3] | pIC50 (GP2d cells (KRAS G12D); GP2d, pERK HTRF) | pIC50 [1, 6] | pIC50 [2, 7] | pIC50 (GP2d cells (KRAS G12D); pERK HTRF) | pIC50 ([1]; KRAS G12D-GppNHp/RAF1 RBD HTRF) | pIC50 ([2]; KRAS G12R-GppNHp/RAF1 RBD HTRF) | pIC50 (GP2d cells (KRAS G12D)) | pIC50 (GP2d cells (KRAS G12D); pERK HTRF, class symbols) | Structure (SMILES) |
| --- | --- | --- | --- | --- | --- | --- | --- | --- | --- | --- | --- | --- | --- |
| > 7.00 | > 7.00 | > 7.00 | > 7.00 | 6.00 to 7.00 | – | – | – | – | – | – | – | – | CCN(c1nc(OC[C@@]23CCCN2C[C@H](F)C3)nc2c(F)c(-c3ccc(F)c4sc(N)c(C#N)c34)c(C(F)(F)F)cc12)[C@H]1C[C@@H](C)N(C(=O)C2COC2)C1 (atropisomer, axis not shown) [Compound 586] |
| > 7.00 | > 7.00 | > 7.00 | > 7.00 | 6.00 to 7.00 | – | – | – | – | – | – | – | – | CCN(c1nc(OC[C@@]23CCCN2C[C@H](F)C3)nc2c(F)c(-c3ccc(F)c4sc(N)c(C#N)c34)c(C(F)(F)F)cc12)[C@H]1CCN(C(=O)N2CC(F)C2)C1 (atropisomer, axis not shown) [Compound 606] |
| > 7.00 | > 7.00 | 6.00 to 7.00 | 6.00 to 7.00 | 6.00 to 7.00 | – | – | – | – | – | – | – | – | Cc1c(C(=O)N2CCCC2)nn2c1CN(c1nc(OCC34CCCN3CC(F)C4)nc3c(F)c(-c4ccc(F)c5sc(N)c(C#N)c45)c(C(F)(F)F)cc13)CC2 (stereo not shown) [Compound 744] |
| > 7.00 | – | – | – | 6.00 to 7.00 | – | – | – | > 7.00 | > 7.00 | > 7.00 | – | – | C[C@@H]1[C@H](N(C)c2nc(OC[C@@]34CCCN3C[C@H](F)C4)nc3c(F)c(-c4ccc(F)c5sc(N)c(C#N)c45)c(C(F)(F)F)cc23)CCN1C(=O)C1CC1 (atropisomer, axis not shown) [Compound 333] |
| > 7.00 | > 7.00 | > 7.00 | > 7.00 | 6.00 to 7.00 | – | – | – | – | – | – | – | – | C=C(C)C(=O)N1CC[C@H](N(CC)c2nc(OC[C@@]34CCCN3C[C@H](F)C4)nc3c(F)c(-c4ccc(F)c5sc(N)c(C#N)c45)c(C(F)(F)F)cc23)C1 (atropisomer, axis not shown) [Compound 673] |
| – | – | – | – | ≥ 7.00 | – | > 7.00 | > 7.00 | > 7.00 | – | – | > 7.00 | – | CN(c1nc(OC[C@@]23CCCN2C[C@H](F)C3)nc2c(F)c(-c3ccc(F)c4sc(N)c(C#N)c34)c(C(F)(F)F)cc12)[C@H]1C[C@@H](O)C1 [Compound 19, 2-amino-7-fluoro-4-((S)-8-fluoro-2-(((2R,7aS)-2-fluorotetrahydro-1H-pyrrolizin-7a(5H)-yl)methoxy)-4-(((1s,3R)-3-hydroxycyclobutyl)(methyl)amino)-6-(trifluoromethyl)quinazolin-7-yl)benzo[b]thiophene-3-carbonitrile] |
| > 7.00 | > 7.00 | > 7.00 | > 7.00 | 6.00 to 7.00 | – | – | – | – | – | – | – | – | CCN(c1nc(OC[C@@]23CCCN2C[C@H](F)C3)nc2c(F)c(-c3ccc(F)c4sc(N)c(C#N)c34)c(C(F)(F)F)cc12)[C@H]1CCN(C(=O)C2CC2)[C@@H]1C (atropisomer, axis not shown) [Compound 579] |
| > 7.00 | > 7.00 | > 7.00 | > 7.00 | ≥ 7.00 | – | – | – | – | – | – | – | – | CCN(c1nc(OC[C@@]23CCCN2C[C@H](F)C3)nc2c(F)c(-c3ccc(F)c4sc(N)c(C#N)c34)c(C(F)(F)F)cc12)[C@H]1C[C@H]2CCC(=O)N2C1 (atropisomer, axis not shown; (aR)) [Compound 573, 2-amino-4-((S)-4-(ethyl((2S,7aR)-5-oxohexahydro-1H-pyrrolizin-2-yl)amino)-8-fluoro-2-(((2R,7aS)-2-fluorotetrahydro-1H-pyrrolizin-7a(5H)-yl)methoxy)-6-(trifluoromethyl)quinazolin-7-yl)-7-fluorobenzo[b]thiophene-3-carbonitrile] |
| > 7.00 | > 7.00 | 6.00 to 7.00 | 6.00 to 7.00 | 6.00 to 7.00 | – | – | – | – | – | – | – | – | CCN(c1nc(OC[C@@]23CCCN2C[C@H](F)C3)nc2c(F)c(-c3ccc(F)c4sc(N)c(C#N)c34)c(C(F)(F)F)cc12)[C@H]1CC(=O)N(CC(F)F)C1 (atropisomer, axis not shown) [Compound 613] |
| > 7.00 | – | – | – | 6.00 to 7.00 | > 7.00 | > 7.00 | > 7.00 | – | – | – | – | – | CCN(c1nc(OC[C@@]23CCCN2C[C@H](F)C3)nc2c(F)c(-c3ccc(F)c4sc(N)c(C#N)c34)c(C(F)(F)F)cc12)[C@H]1CCN(C(C)=O)C1 [Compound 262] |
| > 7.00 | – | – | – | 6.00 to 7.00 | > 7.00 | – | – | – | > 7.00 | > 7.00 | – | – | N#Cc1c(N)sc2c(F)ccc(-c3c(C(F)(F)F)cc4c(N5CCCC[C@@H](O)C5)nc(OC[C@@]56CCCN5C[C@H](F)C6)nc4c3F)c12 [Compound 286] |
| > 7.00 | – | – | – | 6.00 to 7.00 | > 7.00 | – | – | – | > 7.00 | > 7.00 | – | – | CCN(c1nc(OC[C@@]23CCCN2C[C@H](F)C3)nc2c(F)c(-c3ccc(F)c4sc(N)c(C#N)c34)c(C(F)(F)F)cc12)[C@H]1CCN(C(=O)C(C)C)C1 [Compound 332] |
| > 7.00 | > 7.00 | 5.00 to 6.00 | 5.00 to 6.00 | < 5.00 | – | – | – | – | – | – | – | – | N#Cc1c(N)sc2c(F)ccc(-c3c(C(F)(F)F)cc4c(N(C5CC5)[C@H]5CCS(=O)(=O)C5)nc(OC[C@@]56CCCN5C[C@H](F)C6)nc4c3F)c12 [Compound 702] |
| > 7.00 | > 7.00 | > 7.00 | > 7.00 | 6.00 to 7.00 | – | – | – | – | – | – | – | – | CCN(c1nc(OC[C@@]23CCCN2C[C@H](F)C3)nc2c(F)c(-c3ccc(F)c4sc(N)c(C#N)c34)c(C(F)(F)F)cc12)[C@H]1CCN(C(=O)CC(F)F)C1 (atropisomer, axis not shown) [Compound 611] |
| – | > 7.00 | 6.00 to 7.00 | 5.00 to 6.00 | 5.00 to 6.00 | – | – | – | – | – | – | > 7.00 | – | CCN(c1nc(OC[C@@]23CCCN2C[C@H](F)C3)nc2c(F)c(-c3ccc(F)c4sc(N)c(C#N)c34)c(C(F)(F)F)cc12)[C@@H]1CC(=O)N(C2CC2)C1 (atropisomer, axis not shown) [Compound 703] |
| > 7.00 | – | – | – | 6.00 to 7.00 | > 7.00 | – | – | – | 6.00 to 7.00 | 6.00 to 7.00 | – | – | CCC(=O)N1CC[C@@H](N(CC)c2nc(OC[C@@]34CCCN3C[C@H](F)C4)nc3c(F)c(-c4ccc(F)c5sc(N)c(C#N)c45)c(C(F)(F)F)cc23)C1 [Compound 327] |
| > 7.00 | > 7.00 | > 7.00 | > 7.00 | 6.00 to 7.00 | – | – | – | – | – | – | – | – | CCN(c1nc(OC[C@@]23CCCN2C[C@H](F)C3)nc2c(F)c(-c3ccc(F)c4sc(N)c(C#N)c34)c(C(F)(F)F)cc12)[C@H]1CCN(C(=O)c2ccns2)C1 (atropisomer, axis not shown) [Compound 726] |
| > 7.00 | – | – | – | 6.00 to 7.00 | > 7.00 | > 7.00 | > 7.00 | – | – | – | – | – | CCN(c1nc(OC[C@@]23CCCN2C[C@H](F)C3)nc2c(F)c(-c3ccc(F)c4sc(N)c(C#N)c34)c(C(F)(F)F)cc12)[C@@H]1CCN(C(C)=O)C1 [Compound 268] |
| > 7.00 | > 7.00 | > 7.00 | > 7.00 | 6.00 to 7.00 | – | – | – | – | – | – | – | – | CCN(c1nc(OC[C@@]23CCCN2C[C@H](F)C3)nc2c(F)c(-c3ccc(F)c4sc(N)c(C#N)c34)c(C(F)(F)F)cc12)[C@H]1C[C@H](C)N(C(=O)OC)C1 (atropisomer, axis not shown) [Compound 704] |
| > 7.00 | > 7.00 | > 7.00 | > 7.00 | 6.00 to 7.00 | – | – | – | – | – | – | – | – | C[C@H](c1cccnc1N)N(C)c1nc(OC[C@@]23CCCN2C[C@H](F)C3)nc2c(F)c(-c3ccc(F)c4sc(N)c(C#N)c34)c(C(F)(F)F)cc12 (atropisomer, axis not shown) [Compound 600] |
| – | – | > 7.00 | > 7.00 | 6.00 to 7.00 | – | – | – | – | – | – | > 7.00 | > 7.00 | CCN(c1nc(OCC23CCCN2CC(F)C3)nc2c(F)c(-c3ccc(F)c4sc(N)c(C#N)c34)c(C(F)(F)F)cc12)C1CC(C)N(C(=O)C2CC2(F)F)C1 (stereo not shown) [Compound 732] |
| > 7.00 | > 7.00 | > 7.00 | 6.00 to 7.00 | 6.00 to 7.00 | – | – | – | – | – | – | – | – | Cc1c(C(=O)N2CCOCC2)nn2c1CN(c1nc(OCC34CCCN3CC(F)C4)nc3c(F)c(-c4ccc(F)c5sc(N)c(C#N)c45)c(C(F)(F)F)cc13)CC2 (stereo not shown) [Compound 741] |

| Structure (SMILES) | pIC50 (GP2d cells (KRAS G12D); GP2d) | pIC50 (GP2d cells (KRAS G12D); GP2d, pERK HTRF, class symbols) | pIC50 [1, 4] | pIC50 [2, 5] | pIC50 [3] | pIC50 (GP2d cells (KRAS G12D); GP2d, pERK HTRF) | pIC50 [1, 6] | pIC50 [2, 7] | pIC50 (GP2d cells (KRAS G12D); pERK HTRF) | pIC50 ([1]; KRAS G12D-GppNHp/RAF1 RBD HTRF) | pIC50 ([2]; KRAS G12R-GppNHp/RAF1 RBD HTRF) | pIC50 (GP2d cells (KRAS G12D)) | pIC50 (GP2d cells (KRAS G12D); pERK HTRF, class symbols) |
| --- | --- | --- | --- | --- | --- | --- | --- | --- | --- | --- | --- | --- | --- |
| N#Cc1c(N)sc2c(F)ccc(-c3c(C(F)(F)F)cc4c(N5CC6CC(C5)O6)nc(OC[C@@]56CCCN5C[C@H](F)C6)nc4c3F)c12 [Compound 145] | > 7.00 | – | – | – | 5.00 to 6.00 | > 7.00 | 6.00 to 7.00 | 6.00 to 7.00 | – | – | – | – | – |
